# Biological target: T1, full-length recombinant human NEK7 (Homo sapiens, UniProt Q8TDX7)
# T1 construct: full-length recombinant human NEK7; GST (N); purchased SignalChem Nab 09-10G; host or cells: Sf9 insect cells (baculovirus)
# Assay: NEK7 Enzymatic Assay
# Format: biochemical
# Conditions: casein substrate, [33P]-ATP, 2 hours at room temperature
# Method: Casein substrate (from bovine milk, hydrolyzed and partially dephosphorylated mixture of α, β and κ caseins, obtained from Sigma Aldrich, catalogue #C4765, diluted in distilled water to a final concentration of 1 mg/mL) and full-length recombinant human NEK7 (expressed by baculovirus in Sf9 insect cells using a N-terminal GST tag, obtained from SignalChem, catalogue #Nab 09-10G, 0.1 μg/μL) were mixed in assay buffer (20 mM Hepes pH 7.5, 10 mM MgCl2, 1 mM EGTA, 0.02% Brij35, 0.02 mg/ml BSA, 0.1 mM Na3VO4, 2 mM DTT, 1% DMSO). Compounds of interest (serial 3-fold dilution in DMSO from 10 μM to 0.5 nM) or vehicle (1% DMSO) were dispensed into the kinase reaction mixture by Acoustic technology (Echo550; nanoliter range). After incubation at room temperature for 20 minutes, the kinase reaction was initiated by addition of [^33P]-ATP (specific activity 10 μCi/μl) and the mixture was incubated at room temperature for 2 hours. The reaction was then stopped by spotting the reaction mixture on strips of phosphocellulose P81 paper. Following washing, the radioactivity of the P81 paper was measured and kinase activity data were expressed as the percent remaining kinase activity in test samples compared to vehicle reactions. IC50 values and curve fits were obtained using Prism (GraphPad Software).
# T1 sequence (Q8TDX7 whole entry): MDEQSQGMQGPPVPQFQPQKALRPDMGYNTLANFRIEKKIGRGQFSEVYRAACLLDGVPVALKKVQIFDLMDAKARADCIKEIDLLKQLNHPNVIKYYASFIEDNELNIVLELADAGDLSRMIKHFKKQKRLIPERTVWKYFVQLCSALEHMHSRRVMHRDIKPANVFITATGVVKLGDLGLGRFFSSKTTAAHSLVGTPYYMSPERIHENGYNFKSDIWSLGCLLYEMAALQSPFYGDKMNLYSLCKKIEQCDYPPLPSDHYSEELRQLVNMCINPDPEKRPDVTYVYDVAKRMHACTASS
row,Structure (SMILES),IC50
1,"Cn1nc(-c2ccc(NC(=O)Nc3cc(C(C)(C)C)no3)c(Cl)c2)c2c(N)ncnc21 [Example 28, 1-(4-(4-amino-1-methyl-1H-pyrazolo[3,4-d]pyrimidin-3-yl)-2-chlorophenyl)-3-(3-(tert-butyl)isoxazol-5-yl)urea]",> 501 nM
2,"CC(C)(C)c1cc(NC(=O)Nc2ccc(-c3nn(C4CC4)c4ccnc(N)c34)cc2)on1 [Example 31, 1-(4-(4-amino-1-cyclopropyl-1H-pyrazolo[4,3-c]pyridin-3-yl)phenyl)-3-(3-(tert-butyl)isoxazol-5-yl)urea]",> 501 nM
3,"CC(C)(C)c1csc(NC(=O)Nc2ccc(-c3nn(C4CC4)c4ncnc(N)c34)cc2F)n1 [Example 34, 1-(4-(4-amino-1-cyclopropyl-1H-pyrazolo[3,4-d]pyrimidin-3-yl)-2-fluorophenyl)-3-(4-(tert-butyl)thiazol-2-yl)urea]",> 501 nM
4,"CC(C)(C)c1cc(NC(=O)Nc2ccc(-c3nn(C4CC4)c4ncnc(N)c34)cc2F)sn1 [Example 35, 1-(4-(4-amino-1-cyclopropyl-1H-pyrazolo[3,4-d]pyrimidin-3-yl)-2-fluorophenyl)-3-(3-(tert-butyl)isothiazol-5-yl)urea]",> 501 nM
5,"CC(C)(C)c1nnc(NC(=O)Nc2ccc(-c3nn(C4CC4)c4ncnc(N)c34)cc2F)o1 [Example 36, 1-(4-(4-amino-1-cyclopropyl-1H-pyrazolo[3,4-d]pyrimidin-3-yl)-2-fluorophenyl)-3-(5-(tert-butyl)-1,3,4-oxadiazol-2-yl)urea]",> 501 nM
6,"CC(C)(C)c1nsc(NC(=O)Nc2ccc(-c3nn(C4CC4)c4ncnc(N)c34)cc2F)n1 [Example 37, 1-(4-(4-amino-1-cyclopropyl-1H-pyrazolo[3,4-d]pyrimidin-3-yl)-2-fluorophenyl)-3-(3-(tert-butyl)-1,2,4-thiadiazol-5-yl)urea]",> 501 nM
7,"CC(C)(C)n1cnc(NC(=O)Nc2ccc(-c3nn(C4CC4)c4ncnc(N)c34)cc2F)n1 [Example 38, 1-(4-(4-amino-1-cyclopropyl-1H-pyrazolo[3,4-d]pyrimidin-3-yl)-2-fluorophenyl)-3-(1-(tert-butyl)-1H-1,2,4-triazol-3-yl)urea]",> 501 nM
8,"CN1CC(n2nc(-c3ccc(NC(=O)Nc4cc(C5(C(F)(F)F)CC5)no4)c(F)c3)c3c(N)ncnc32)C1 [Example 49, 1-(4-(4-amino-1-(1-methylazetidin-3-yl)-1H-pyrazolo[3,4-d]pyrimidin-3-yl)-2-fluorophenyl)-3-(3-(1-(trifluoromethyl)cyclopropyl)isoxazol-5-yl)urea]",> 501 nM
9,"Nc1ncnc2c1c(-c1ccc(NC(=O)Nc3cc(CO)no3)c(F)c1)nn2C1CC1 [Example 53, 1-(4-(4-amino-1-cyclopropyl-1H-pyrazolo[3,4-d]pyrimidin-3-yl)-2-fluorophenyl)-3-(3-(hydroxymethyl)isoxazol-5-yl)urea]",> 501 nM

# Further lines, results first:
row,IC50,Structure (SMILES)
1,> 501 nM,"CC(C)n1nc(-c2ccc(NC(=O)Nc3cc(C(C)(C)C)no3)c(Cl)c2)c2c(N)ncnc21 [Example 6, 1-(4-(4-amino-1-isopropyl-1H-pyrazolo[3,4-d]pyrimidin-3-yl)-2-chlorophenyl)-3-(3-(tert-butyl)isoxazol-5-yl)urea]"
2,> 501 nM,"CC(C)(C)c1cc(NC(=O)Nc2ccc(-c3nn(C4CC(F)(F)C4)c4ncnc(N)c34)cc2F)on1 [Example 16, 1-(4-(4-amino-1-(3,3-difluorocyclobutyl)-1H-pyrazolo[3,4-d]pyrimidin-3-yl)-2-fluorophenyl)-3-(3-(tert-butyl)isoxazol-5-yl)urea]"
3,> 501 nM,"CC(C)(F)c1cc(NC(=O)Nc2ccc(-c3nn(C4CC4)c4ncnc(N)c34)cc2F)on1 [Example 27, 1-(4-(4-amino-1-cyclopropyl-1H-pyrazolo[3,4-d]pyrimidin-3-yl)-2-fluorophenyl)-3-(3-(2-fluoropropan-2-yl)isoxazol-5-yl)urea]"
4,301 to 500 nM,"CCC(CC)c1cc(NC(=O)Nc2ccc(-c3nn(C4CC4)c4ncnc(N)c34)cc2F)on1 [Example 40, 1-(4-(4-amino-1-cyclopropyl-1H-pyrazolo[3,4-d]pyrimidin-3-yl)-2-fluorophenyl)-3-(3-(pentan-3-yl)isoxazol-5-yl)urea]"
5,< 150 nM,"CC(C)c1cc(NC(=O)Nc2ccc(-c3nn(C4CC4)c4ncnc(N)c34)cc2F)on1 [Example 41, 1-(4-(4-amino-1-cyclopropyl-1H-pyrazolo[3,4-d]pyrimidin-3-yl)-2-fluorophenyl)-3-(3-isopropylisoxazol-5-yl)urea]"
6,151 to 300 nM,"CCc1cc(NC(=O)Nc2ccc(-c3nn(C4CC4)c4ncnc(N)c34)cc2F)on1 [Example 42, 1-(4-(4-amino-1-cyclopropyl-1H-pyrazolo[3,4-d]pyrimidin-3-yl)-2-fluorophenyl)-3-(3-ethylisoxazol-5-yl)urea]"
7,< 150 nM,"Nc1ncnc2c1c(-c1ccc(NC(=O)Nc3cc(C4(C(F)(F)F)CC4)no3)c(F)c1)nn2C1CC(O)C1 (stereo not shown) [Example 46, 1-(4-(4-amino-1-(3-hydroxycyclobutyl)-1H-pyrazolo[3,4-d]pyrimidin-3-yl)-2-fluorophenyl)-3-(3-(1-(trifluoromethyl)cyclopropyl)isoxazol-5-yl)urea]"
8,301 to 500 nM,"Nc1ncnc2c1c(-c1cc(F)c(NC(=O)Nc3cc(C4(C(F)(F)F)CC4)no3)cc1F)nn2C1CC1 [Example 50, 1-(4-(4-amino-1-cyclopropyl-1H-pyrazolo[3,4-d]pyrimidin-3-yl)-2,5-difluorophenyl)-3-(3-(1-(trifluoromethyl)cyclopropyl)isoxazol-5-yl)urea]"
9,< 150 nM,"CC(C)(C#N)c1cc(NC(=O)Nc2ccc(-c3nn(C4CC4)c4ncnc(N)c34)cc2F)on1 [Example 52, 1-(4-(4-amino-1-cyclopropyl-1H-pyrazolo[3,4-d]pyrimidin-3-yl)-2-fluorophenyl)-3-(3-(2-cyanopropan-2-yl)isoxazol-5-yl)urea]"
10,151 to 300 nM,"Nc1nccc2c1c(-c1ccc(NC(=O)Nc3cc(C4(C(F)(F)F)CC4)no3)nc1)nn2C1CC1 [Example 54, 1-(5-(4-amino-1-cyclopropyl-1H-pyrazolo[4,3-c]pyridin-3-yl)pyridin-2-yl)-3-(3-(1-(trifluoromethyl)cyclopropyl)isoxazol-5-yl)urea]"
11,< 150 nM,"Nc1ncnc2c1c(-c1ccc(NC(=O)Nc3cc(C4(C(F)(F)F)CC4)no3)c(F)c1)nn2CCO [Example 55, 1-(4-(4-amino-1-(2-hydroxyethyl)-1H-pyrazolo[3,4-d]pyrimidin-3-yl)-2-fluorophenyl)-3-(3-(1-(trifluoromethyl)cyclopropyl)isoxazol-5-yl)urea]"
12,151 to 300 nM,"COCCn1nc(-c2ccc(NC(=O)Nc3cc(C4(C(F)(F)F)CC4)no3)c(F)c2)c2c(N)ncnc21 [Example 57, 1-(4-(4-amino-1-(2-methoxyethyl)-1H-pyrazolo[3,4-d]pyrimidin-3-yl)-2-fluorophenyl)-3-(3-(1-(trifluoromethyl)cyclopropyl)isoxazol-5-yl)urea]"
13,151 to 300 nM,"COCCn1nc(-c2ccc(NC(=O)Nc3cc(C4(C(F)(F)F)CC4)on3)c(F)c2)c2c(N)ncnc21 [Example 58, 1-(4-(4-amino-1-(2-methoxyethyl)-1H-pyrazolo[3,4-d]pyrimidin-3-yl)-2-fluorophenyl)-3-(5-(1-(trifluoromethyl)cyclopropyl)isoxazol-3-yl)urea]"
